Where “and” joins values, the source holds several entries; their conditions need not be identical. Identical values can stand only once. Toxic doses and inconclusive results are not listed. Rule as the data show it: active = T/C of 150% or more; inactive = T/C below 125%.
System: L1210 leukemia ip in BDF1 mice, survival T/C
Assay: NCI In Vivo Anticancer Drug Screen. Data for tumor model L1210 Leukemia (intraperitoneal) in B6D2F1 (BDF1) mice
Conditions: endpoint: mean survival time, higher = longer survival
Method in brief: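 Ratio derived from survival: compound-dosed mice over vehicle-dosed mice, all bearing a transplantable tumor.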

[1] = dose: 100.0 mg/kg/injection, schedule: Q04DX002 (ip), vehicle: Klucel (hydroxypropylcellulose) (HPC)
[2] = dose: 200.0 mg/kg/injection, schedule: Q04DX002 (ip), vehicle: Klucel (hydroxypropylcellulose) (HPC)
[3] = dose: 100.0 mg/kg/injection, schedule: Q04DX003 (ip), vehicle: saline
[4] = dose: 200.0 mg/kg/injection, schedule: Q04DX003 (ip), vehicle: saline
[5] = dose: 400.0 mg/kg/injection, schedule: Q04DX003 (ip), vehicle: saline
[6] = dose: 75.0 mg/kg/injection, schedule: Q01DX001 (ip), vehicle: saline
[7] = dose: 50.0 mg/kg/injection, schedule: Q01DX001 (ip), vehicle: carboxymethylcellulose (CMC)
[8] = dose: 100.0 mg/kg/injection, schedule: Q01DX009 (ip), vehicle: saline
[9] = dose: 200.0 mg/kg/injection, schedule: Q01DX009 (ip), vehicle: saline
[10] = dose: 100.0 mg/kg/injection, schedule: Q04DX002 (ip), vehicle: saline with Tween-80
[11] = dose: 100.0 mg/kg/injection, schedule: Q01DX009 (ip), vehicle: Klucel (hydroxypropylcellulose) (HPC)
[12] = dose: 200.0 mg/kg/injection, schedule: Q01DX009 (ip), vehicle: Klucel (hydroxypropylcellulose) (HPC)
[13] = dose: 400.0 mg/kg/injection, schedule: Q04DX002 (ip), vehicle: Klucel (hydroxypropylcellulose) (HPC)

Measured: T/C

Cc1ccc(C(=O)c2ccc(Cl)cc2)cc1
inactive: dose: 50.0 mg/kg/injection, schedule: Q01DX001 (ip), vehicle: saline 90 % of control | dose: 100.0 mg/kg/injection, schedule: Q01DX001 (ip), vehicle: saline 98 % of control | dose: 200.0 mg/kg/injection, schedule: Q01DX001 (ip), vehicle: saline 102 % of control | dose: 400.0 mg/kg/injection, schedule: Q01DX001 (ip), vehicle: saline 96 % of control

CCc1cc[c]([Hg][Cl])o1
inactive: dose: 12.5 mg/kg/injection, schedule: Q01DX001 (ip), vehicle: other 100 % of control | dose: 25.0 mg/kg/injection, schedule: Q01DX001 (ip), vehicle: other 100 % of control

CC(C)(CCl)c1ccc(C(C)(C)CCl)cc1
inactive: dose: 50.0 mg/kg/injection, schedule: Q04DX002 (ip), vehicle: Klucel (hydroxypropylcellulose) (HPC) 104 % of control | [1] 93 % of control | [2] 93 % of control

Cc1cccc2c(=O)c(C(=O)O)cn(C)c12
inactive: dose: 50.0 mg/kg/injection, schedule: Q04DX002 (ip), vehicle: saline 107 % of control | dose: 100.0 mg/kg/injection, schedule: Q04DX002 (ip), vehicle: saline 107 % of control | dose: 200.0 mg/kg/injection, schedule: Q04DX002 (ip), vehicle: saline 107 % of control

CCOC(=O)C(=CC(CC)C(=O)OCC)C(=O)OCC (centres undefined) (tested in a mixture with another compound)
inactive: [3] 93 % of control | [4] 93 % of control | [5] 89 % of control

CN(C)C(=O)NN1CCCCCC1
inactive: [3] 96 % of control | [4] 96 % of control | [5] 100 % of control

C/C=C/CC1(CC)C(=O)NC(=O)NC1=O
inactive: dose: 75.0 mg/kg/injection, schedule: Q01DX001 (ip), vehicle: other 98 % of control | [6] 93 % of control | dose: 150.0 mg/kg/injection, schedule: Q01DX001 (ip), vehicle: other 110 % of control | dose: 150.0 mg/kg/injection, schedule: Q01DX001 (ip), vehicle: saline 102 % of control | dose: 300.0 mg/kg/injection, schedule: Q01DX001 (ip), vehicle: other 96 % of control

CN(CC#CCOc1ccc(Cl)cc1)c1ccccc1
inactive: dose: 12.5 mg/kg/injection, schedule: Q01DX001 (ip), vehicle: carboxymethylcellulose (CMC) 96 % of control | dose: 12.5 mg/kg/injection, schedule: Q01DX009 (ip), vehicle: carboxymethylcellulose (CMC) 97 % of control and 90 % of control | dose: 12.5 mg/kg/injection, schedule: Q04DX002 (ip), vehicle: carboxymethylcellulose (CMC) 93 % of control and 106 % of control | dose: 12.5 mg/kg/injection, schedule: Q04DX003 (ip), vehicle: carboxymethylcellulose (CMC) 103 % of control | dose: 25.0 mg/kg/injection, schedule: Q01DX001 (ip), vehicle: carboxymethylcellulose (CMC) 96 % of control | dose: 25.0 mg/kg/injection, schedule: Q01DX009 (ip), vehicle: carboxymethylcellulose (CMC) 93 % of control | dose: 25.0 mg/kg/injection, schedule: Q04DX002 (ip), vehicle: carboxymethylcellulose (CMC) 93 % of control and 110 % of control | dose: 25.0 mg/kg/injection, schedule: Q04DX003 (ip), vehicle: carboxymethylcellulose (CMC) 102 % of control | [7] 96 % of control | dose: 50.0 mg/kg/injection, schedule: Q01DX009 (ip), vehicle: carboxymethylcellulose (CMC) 93 % of control and 90 % of control | dose: 50.0 mg/kg/injection, schedule: Q04DX002 (ip), vehicle: carboxymethylcellulose (CMC) 92 % of control and 94 % of control | dose: 50.0 mg/kg/injection, schedule: Q04DX003 (ip), vehicle: carboxymethylcellulose (CMC) 97 % of control | dose: 100.0 mg/kg/injection, schedule: Q04DX002 (ip), vehicle: carboxymethylcellulose (CMC) 95 % of control | dose: 200.0 mg/kg/injection, schedule: Q04DX002 (ip), vehicle: carboxymethylcellulose (CMC) 88 % of control | dose: 400.0 mg/kg/injection, schedule: Q04DX002 (ip), vehicle: carboxymethylcellulose (CMC) 88 % of control

CN(N)Cc1cccc(O)c1
inactive: dose: 50.0 mg/kg/injection, schedule: Q01DX009 (ip), vehicle: saline 101 % of control | [8] 104 % of control | [9] 101 % of control

O=c1[nH]cc(C2OC(CO)C(O)C2O)c(=O)[nH]1 (centres undefined)
inactive: dose: 100.0 mg/kg/injection, schedule: Q01DX005 (ip), vehicle: saline 119 % of control | dose: 200.0 mg/kg/injection, schedule: Q01DX005 (ip), vehicle: saline 97 % of control

CSC(=N)N(C)Cc1ccccc1
inactive: dose: 9.37 mg/kg/injection, schedule: Q01DX009 (ip), vehicle: saline 103 % of control | dose: 18.75 mg/kg/injection, schedule: Q01DX009 (ip), vehicle: saline 111 % of control | dose: 18.75 mg/kg/injection, schedule: Q04DX003 (ip), vehicle: saline 102 % of control | dose: 37.5 mg/kg/injection, schedule: Q01DX009 (ip), vehicle: saline 108 % of control | dose: 37.5 mg/kg/injection, schedule: Q04DX003 (ip), vehicle: saline 96 % of control | [6] 102 % of control | dose: 75.0 mg/kg/injection, schedule: Q04DX003 (ip), vehicle: saline 88 % of control

O=[N+]([O-])c1ccc(S(=O)(=O)OCc2ccccc2COS(=O)(=O)c2ccc([N+](=O)[O-])cc2)cc1
inactive: dose: 50.0 mg/kg/injection, schedule: Q04DX002 (ip), vehicle: saline with Tween-80 106 % of control | [10] 101 % of control

O=C(/C=C/C(=O)Oc1ccc(Cl)cc1Cl)Oc1ccc(Cl)cc1Cl
inactive: [11] 94 % of control | dose: 100.0 mg/kg/injection, schedule: Q04DX003 (ip), vehicle: Klucel (hydroxypropylcellulose) (HPC) 111 % of control | [12] 95 % of control | dose: 200.0 mg/kg/injection, schedule: Q04DX003 (ip), vehicle: Klucel (hydroxypropylcellulose) (HPC) 100 % of control | dose: 400.0 mg/kg/injection, schedule: Q01DX009 (ip), vehicle: Klucel (hydroxypropylcellulose) (HPC) 97 % of control | dose: 400.0 mg/kg/injection, schedule: Q04DX003 (ip), vehicle: Klucel (hydroxypropylcellulose) (HPC) 100 % of control

O[Si](c1ccccc1)(c1ccccc1)c1ccccc1
inactive: dose: 100.0 mg/kg/injection, schedule: Q01DX009 (ip), vehicle: saline with Tween-80 95 % of control | [10] 100 % of control | dose: 200.0 mg/kg/injection, schedule: Q01DX009 (ip), vehicle: saline with Tween-80 88 % of control | dose: 200.0 mg/kg/injection, schedule: Q04DX002 (ip), vehicle: saline with Tween-80 96 % of control | dose: 400.0 mg/kg/injection, schedule: Q01DX009 (ip), vehicle: saline with Tween-80 91 % of control | dose: 400.0 mg/kg/injection, schedule: Q04DX002 (ip), vehicle: saline with Tween-80 87 % of control

COCC(O)CC#N (centres undefined)
inactive: [8] 117 % of control | [9] 113 % of control | dose: 400.0 mg/kg/injection, schedule: Q01DX009 (ip), vehicle: saline 111 % of control

Cc1ccc(S/C(=N\O)C(C)C)cc1
inactive: [1] 108 % of control | [2] 92 % of control | [13] 110 % of control

CC(=O)c1ccc(Cl)c([N+](=O)[O-])c1
inactive: dose: 100.0 mg/kg/injection, schedule: Q01DX001 (ip), vehicle: Klucel (hydroxypropylcellulose) (HPC) 91 % of control | [11] 105 % of control | dose: 200.0 mg/kg/injection, schedule: Q01DX001 (ip), vehicle: Klucel (hydroxypropylcellulose) (HPC) 97 % of control | [12] 100 % of control | dose: 400.0 mg/kg/injection, schedule: Q01DX001 (ip), vehicle: Klucel (hydroxypropylcellulose) (HPC) 96 % of control

CC(C)NC(=O)Oc1ccccc1
inactive: [1] 93 % of control | [2] 110 % of control | [13] 96 % of control

Cc1ccc(S(=O)(=O)OCCN(CCOS(=O)(=O)c2ccc(C)cc2)c2ccc(C=O)cc2)cc1
inactive: [7] 114 % of control | dose: 100.0 mg/kg/injection, schedule: Q01DX001 (ip), vehicle: carboxymethylcellulose (CMC) 102 % of control and 120 % of control | dose: 175.0 mg/kg/injection, schedule: Q01DX001 (ip), vehicle: carboxymethylcellulose (CMC) 121 % of control | dose: 200.0 mg/kg/injection, schedule: Q01DX001 (ip), vehicle: carboxymethylcellulose (CMC) 98 % of control and 122 % of control | dose: 265.0 mg/kg/injection, schedule: Q01DX001 (ip), vehicle: carboxymethylcellulose (CMC) 116 % of control | dose: 600.0 mg/kg/injection, schedule: Q01DX001 (ip), vehicle: carboxymethylcellulose (CMC) 115 % of control

Source: PubChem BioAssay AID248 (DTP/NCI, 2004)
